IC50 data for 63 molecules are collected here from patent publication US11497751B2, “Modulators of Rho-associated protein kinase” (Redx Pharma PLC, priority 2018, dated 2022).

The structures appear in SMILES notation. pIC50: −log10 of the molar value. Where only a bound is given, the exact number is not on record here.

This experiment addresses T1, N-terminal 6His-tagged ROCK2 catalytic domain 11-552 (Homo sapiens, UniProt O75116).
T1 construct: N-terminal 6His-tagged ROCK2 catalytic domain 11-552; 6His (N); purchased Dundee University, UK; host or cells: baculovirus expression system
Briefly: ROCK2 binding activity: ROCK2 inhibition, ADP-Glo Kinase Assay. Particulars: 1.25 nM ROCK2, 100 μM long S6 peptide, 20 μM ATP; 1 hour pre-incubation; read-out: ADP-Glo kinase activity assay ROCK2 Category. The experiment is classed as biochemical. The essentials:
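1.25 nM baculovirus-expressed ROCK2 pre-incubated 1 h with compound (1% DMSO), then 100 μM long S6 peptide and 20 μM ATP added for 1 h; 50 mM HEPES pH 7.5, 10 mM Mg acetate, 1 mM DTT. ADP-Glo luminescence; IC50 from four-parameter logistic fit.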

T1 sequence (O75116 11-552): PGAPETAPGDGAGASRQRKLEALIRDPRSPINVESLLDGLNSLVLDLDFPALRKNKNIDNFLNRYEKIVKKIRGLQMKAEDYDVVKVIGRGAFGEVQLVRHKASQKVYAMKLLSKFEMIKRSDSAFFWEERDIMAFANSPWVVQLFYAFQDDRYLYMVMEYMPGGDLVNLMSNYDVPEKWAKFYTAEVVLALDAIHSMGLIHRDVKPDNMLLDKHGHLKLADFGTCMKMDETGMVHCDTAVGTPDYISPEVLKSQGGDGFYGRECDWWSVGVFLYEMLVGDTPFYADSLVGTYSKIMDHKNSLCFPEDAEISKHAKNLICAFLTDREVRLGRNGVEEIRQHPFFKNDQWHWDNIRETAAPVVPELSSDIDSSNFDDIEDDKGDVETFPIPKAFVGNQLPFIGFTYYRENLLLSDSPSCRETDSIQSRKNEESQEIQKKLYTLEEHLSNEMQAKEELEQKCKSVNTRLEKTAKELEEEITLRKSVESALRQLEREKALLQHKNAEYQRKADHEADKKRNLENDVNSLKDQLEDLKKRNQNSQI

For the molecule `Cn1nc(-c2ccc(C(=O)NCC(C)(F)F)cc2)nc1Nc1ccc2[nH]ncc2c1C1CC1` [Example 338, 4-[5-[(4-cyclopropyl-1H-indazol-5-yl)amino]-1-methyl-1,2,4-triazol-3-yl]-N-(2,2-difluoropropyl)benzamide], the pIC50 is greater than 6.52.
For `Cn1ccc(NC(=O)c2ccc(-c3nc(Nc4ccc5[nH]ncc5c4C4CC4)n(C)n3)cc2)n1` [Example 339] the value was greater than 6.52; for `CCNC(=O)N1CCC(c2nc(Nc3ccc4[nH]ncc4c3C3CC3)n(C)n2)CC1` [Example 340, 4-[5-[(4-cyclopropyl-1H-indazol-5-yl)amino]-1-methyl-1,2,4-triazol-3-yl]-N-ethyl-piperidine-1-carboxamide], less than 5.00; for `CCNC(=O)N1CC=C(c2nc(Nc3ccc4[nH]ncc4c3C3CC3)n(C)n2)CC1` [Example 341, 4-[5-[(4-cyclopropyl-1H-indazol-5-yl)amino]-1-methyl-1,2,4-triazol-3-yl]-N-ethyl-3,6-dihydro-2H-pyridine-1-carboxamide], 5.52 to 6.52.
Consider `Cn1nc(-c2ccc(C(=O)NCC(F)(F)F)cc2)nc1Nc1ccc2[nH]ncc2c1C1CC1` [Example 343, 4-[5-[(4-cyclopropyl-1H-indazol-5-yl)amino]-1-methyl-1,2,4-triazol-3-yl]-N-(2,2,2-trifluoroethyl)benzamide], for which the pIC50 is greater than 6.52.
Consider `Cn1nc(-c2ccc(C(=O)NC3CC3)cc2)nc1Nc1ccc2[nH]ncc2c1C1CC1` [Example 344, N-Cyclopropyl-4-[5-[(4-cyclopropyl-1H-indazol-5-yl)amino]-1-methyl-1,2,4-triazol-3-yl]benzamide], for which the pIC50 was greater than 6.52.
In the case of `CCNC(=O)c1ccc(-c2nc(Nc3ccc4[nH]ncc4c3Cl)n(C)n2)cc1C(F)(F)F` [Example 345], the pIC50 was 5.00 to 5.52.
For `CCNC(=O)c1ccc(-c2nc(Nc3ccc4[nH]ncc4c3Cl)n(C)n2)cc1C` [Example 346], the pIC50 was greater than 6.52.
As for `CCNC(=O)c1ccc(-c2nc(Nc3ccc4[nH]ncc4c3Cl)n(C)n2)c(OC)c1` [Example 347], the pIC50 is greater than 6.52.
Take `CC(C)NC(=O)COc1ccc(-c2nc(Nc3ccc4[nH]ncc4c3Cl)n(C)n2)cc1C(F)(F)F` [Example 348]: the pIC50 was greater than 6.52.
In the case of `CC(C)NC(=O)COc1ccc(-c2nc(Nc3ccc4[nH]ncc4c3Cl)n(C)n2)cc1C#N` [Example 349] it was greater than 6.52; in that of `Cc1cc(-c2nc(Nc3ccc4[nH]ncc4c3Cl)n(C)n2)ccc1OCC(=O)NC(C)C` [Example 350], greater than 6.52; in that of `CC(C)NC(=O)COc1ccc(-c2nc(Nc3ccc4[nH]ncc4c3Cl)n(C)n2)c(C#N)c1` [Example 351], greater than 6.52.
As to `CC(C)NC(=O)COc1ccc(-c2nc(Nc3ccc4[nH]ncc4c3Cl)n(C)n2)c(Cl)c1` [Example 352], the pIC50 was greater than 6.52.
Turning to `COc1cc(OCC(=O)NC(C)C)ccc1-c1nc(Nc2ccc3[nH]ncc3c2Cl)n(C)n1` [Example 353], the pIC50 is greater than 6.52.
Turning to `Cc1cc(OCC(=O)NC(C)C)ccc1-c1nc(Nc2ccc3[nH]ncc3c2Cl)n(C)n1` [Example 354], the pIC50 is greater than 6.52.
Regarding `CC(C)NC(=O)COc1ccc(-c2nc(Nc3ccc4[nH]ncc4c3Cl)n(C)n2)c(F)c1` [Example 355], the pIC50 was greater than 6.52.
With `CCNC(=O)c1ccc(-c2nc(Nc3ccc4[nH]ncc4c3Cl)n(C)n2)c(F)c1` [Example 356], the pIC50 is greater than 6.52.
As to `CCNC(=O)c1ccc(-c2nc(Nc3ccc4[nH]ncc4c3Cl)n(C)n2)c(C(F)(F)F)c1` [Example 357], the pIC50 is greater than 6.52.
In the case of `CCNC(=O)c1ccc(-c2nc(Nc3ccc4[nH]ncc4c3Cl)n(C)n2)cc1C#N` [Example 358] it was greater than 6.52.
For `CCNC(=O)c1cc(F)c(-c2nc(Nc3ccc4[nH]ncc4c3Cl)n(C)n2)c(F)c1` [Example 359] the value was 5.52 to 6.52; for `CCNC(=O)c1cc(F)c(-c2nc(Nc3ccc4[nH]ncc4c3Cl)n(C)n2)cc1F` [Example 360], greater than 6.52.
Regarding `CCNC(=O)c1c(F)cc(-c2nc(Nc3ccc4[nH]ncc4c3Cl)n(C)n2)cc1F` [Example 361], the pIC50 was 5.52 to 6.52.
Regarding `CC(C)NC(=O)COc1ccc(-c2nc(Nc3ccc4[nH]ncc4c3Cl)n(C)n2)c(F)c1F` [Example 362], the pIC50 was greater than 6.52.
For the molecule `COc1cc(-c2nc(Nc3ccc4[nH]ncc4c3Cl)n(C)n2)ccc1C(=O)NC1CCN(CC(F)(F)F)C1` (stereo not drawn) [Example 363], the pIC50 was greater than 6.52.
As to `Cn1nc(-c2ccc3c(c2)CCNC3=O)nc1Nc1ccc2[nH]ncc2c1Cl` [Example 364], the pIC50 was greater than 6.52.
`COc1cc(-c2nc(Nc3ccc4[nH]ncc4c3Cl)n(C)n2)ccc1C(=O)NC1CNCC1(F)F` (stereo not drawn) [Example 365]: the pIC50 was greater than 6.52.
In the case of `Cc1cc(-c2nc(Nc3ccc4[nH]ncc4c3Cl)n(C)n2)ccc1C(=O)NCC(F)(F)F` [Example 366], the pIC50 was greater than 6.52.
Turning to `CN1CCc2cc(-c3nc(Nc4ccc5[nH]ncc5c4Cl)n(C)n3)ccc2C1` [Example 367], the pIC50 is 5.00 to 5.52.
Regarding `CC(C)NC(=O)COc1c(F)cc(-c2nc(Nc3ccc4[nH]ncc4c3Cl)n(C)n2)cc1F` [Example 368], the pIC50 was greater than 6.52.
Take `CC(C)NC(=O)COc1cc(F)c(-c2nc(Nc3ccc4[nH]ncc4c3Cl)n(C)n2)cc1F` [Example 369]: the pIC50 was greater than 6.52.
Take `CCNC(=O)c1ccc(-c2nc(Nc3ccc4[nH]ncc4c3Cl)n(C)n2)cn1` [Example 370]: the pIC50 is greater than 6.52.
Regarding `Cn1nc(-c2ccc3c(c2)CCN(C(=O)C(C)(C)C)C3)nc1Nc1ccc2[nH]ncc2c1Cl` [Example 371], the pIC50 is greater than 6.52.
Consider `Cn1nc(-c2ccc3c(c2)CCN(CC(F)(F)F)C3)nc1Nc1ccc2[nH]ncc2c1Cl` [Example 372], for which the pIC50 is greater than 6.52.
In the case of `CCNC(=O)c1ccc(-c2nc(Nc3ccc4[nH]ncc4c3Cl)n(C)n2)c2cccnc12` [Example 373], the pIC50 is 5.52 to 6.52.
Consider `Cn1nc(-c2ccc(CNS(=O)(=O)c3cccc(Cl)c3)cc2)nc1Nc1ccc2[nH]ncc2c1Cl` [Example 374], for which the pIC50 is greater than 6.52.
Turning to `COC(=O)c1ccc(-c2nc(Nc3ccc4[nH]ncc4c3C3CC3)n(C)n2)cc1OC` [Example 375], the pIC50 was greater than 6.52.
With `COc1cc(-c2nc(Nc3ccc4[nH]ncc4c3C3CC3)n(C)n2)ccc1C(=O)NC1CCN(CC(F)(F)F)C1` (stereo not drawn) [Example 376], the pIC50 is greater than 6.52.
As to `Cn1nc(-c2ccc3c(c2)CCNC3=O)nc1Nc1ccc2[nH]ncc2c1C1CC1` [Example 377], the pIC50 is greater than 6.52.
For `Cn1nc(-c2ccc(C(=O)NCC(F)(F)F)nc2)nc1Nc1ccc2[nH]ncc2c1C1CC1` [Example 378], the pIC50 is greater than 6.52.
As for `COc1cc(-c2nc(Nc3ccc4[nH]ncc4c3C3CC3)n(C)n2)cnc1C(=O)NC1CC1` [Example 379], the pIC50 was 5.52 to 6.52.
For `Cn1nc(-c2ccc(C(=O)NC3CC3)c(F)c2)nc1Nc1ccc2[nH]ncc2c1C1CC1` [Example 380] the value was greater than 6.52.
In the case of `Cn1nc(-c2ccc3c(c2)COC3=O)nc1Nc1ccc2[nH]ncc2c1C1CC1` [Example 381], the pIC50 was greater than 6.52.
In the case of `COc1cc(-c2nc(Nc3ccc4[nH]ncc4c3C3CC3)n(C)n2)ccc1C(=O)NC1CC1` [Example 383] it was greater than 6.52.
For the molecule `Cn1nc(-c2ccc(C(N)C(F)(F)F)cc2)nc1Nc1ccc2[nH]ncc2c1C1CC1` (stereo not drawn) [Example 384], the pIC50 is 5.52 to 6.52.
As to `Cn1nc(-c2ccc(CNS(C)(=O)=O)cc2)nc1Nc1ccc2[nH]ncc2c1C1CC1` [Example 385], the pIC50 is greater than 6.52.
Turning to `CCNC(c1ccc(-c2nc(Nc3ccc4[nH]ncc4c3C3CC3)n(C)n2)cc1)C(F)(F)F` (stereo not drawn) [Example 386], the pIC50 was 5.52 to 6.52.
Regarding `CCNC(=O)c1ccc(-c2nc(Nc3ccc4[nH]ncc4c3C3CC3)n(C)n2)cc1F` [Example 387], the pIC50 is greater than 6.52.
In the case of `CCNC(c1ccc(-c2nc(Nc3ccc4[nH]ncc4c3C3CC3)n(C)n2)cc1)C(F)F` (stereo not drawn) [Example 388] it was 5.52 to 6.52.
Regarding `Cn1nc(-c2ccc3c(c2)CNCC3)nc1Nc1ccc2[nH]ncc2c1C1CC1` [Example 389], the pIC50 was 5.00 to 5.52.
In the case of `Cn1nc(-c2ccc(-c3ccccn3)cc2)nc1Nc1ccc2[nH]ncc2c1C1CC1` [Example 390] it was greater than 6.52.
For the molecule `CCC(=O)N1CCc2cc(-c3nc(Nc4ccc5[nH]ncc5c4C4CC4)n(C)n3)ccc2C1` [Example 391], the pIC50 was greater than 6.52.
Turning to `Cn1nc(-c2ccncc2)nc1Nc1ccc2[nH]ncc2c1C1CC1` [Example 392], the pIC50 is 5.52 to 6.52.
For the molecule `CCNC(=O)c1ccc(-c2nc(Nc3ccc4[nH]ncc4c3)n(C)n2)cc1C` [Example 394], the pIC50 was 5.52 to 6.52.
Regarding `CCNC(=O)c1ccc(-c2nc(Nc3ccc4[nH]ncc4c3)n(C)n2)c(OC)c1` [Example 395], the pIC50 is greater than 6.52.
For `Cc1cc(-c2nc(Nc3ccc4[nH]ncc4c3)n(C)n2)ccc1OCC(=O)NC(C)C` [Example 396], the pIC50 was greater than 6.52.
For `CC(C)NC(=O)COc1ccc(-c2nc(Nc3ccc4[nH]ncc4c3)n(C)n2)cc1C(F)(F)F` [Example 397] the value was greater than 6.52.
On to `CCNC(=O)c1ccc(-c2nc(Nc3ccc4[nH]ncc4c3)n(C)n2)cc1C(F)(F)F` [Example 398], for which the pIC50 was 5.00 to 5.52.
Turning to `CCNC(=O)c1ccc(-c2nc(Nc3ccc4[nH]ncc4c3)n(C)n2)c(C)c1` [Example 399], the pIC50 is greater than 6.52.
For `CC(C)NC(=O)COc1ccc(-c2nc(Nc3ccc4[nH]ncc4c3)n(C)n2)cc1C#N` [Example 400] the value was greater than 6.52.
On to `Cc1cc(OCC(=O)NC(C)C)ccc1-c1nc(Nc2ccc3[nH]ncc3c2)n(C)n1` [Example 401], for which the pIC50 was greater than 6.52.
In the case of `CC(C)NC(=O)COc1ccc(-c2nc(Nc3ccc4[nH]ncc4c3)n(C)n2)c(C(F)(F)F)c1` [Example 402] it was greater than 6.52; in that of `CC(C)NC(=O)COc1ccc(-c2nc(Nc3ccc4[nH]ncc4c3)n(C)n2)c(C#N)c1` [Example 403], greater than 6.52.
